Measured values reported in patent US8575376B2, “Steroide anionic compounds, method of their production, usage and pharmaceutical preparation involving them” (Ustav Organicke Chemie A Biochemie Akademie Ved Ceske …, priority 2009, dated 2013).
Like-named read-outs stand apart in the source and are kept apart here.

Experiments:
[1] = Pharmacokinetics in plasma and brain after i.p. injection; type: in vivo, rat
Protocol: In the experiment 40 adult Long-Evans male rats from breeding colony of Institute of Physiology AS CR v.v.i., Prague were used. Rats were treated i.p. with a dose 1 mg/kg of compound from example 9 dissolved in 72 mM of hydroxypropyl-β-cyclodextrine saline solution. Brain and plasma was taken 5 min, 15 min, 30 min, 45 min, 60 min, 90 min, 120 min, 180 min, 24 hours and 48 hours after drug administration. Each brain and blood samples were taken from separate rat. Samples were collected in 4 rats for each time interval. Samples were immediately stored in a −80° C. freezer.
The concentrations of compound from example 9 in rat brain and plasma samples were measured by high performance liquid chromatography (HPLC) coupled with mass spectrometry (Agilent 6320 Ion Trap). Deuteried internal standard (3-d labeled compound from example 9) has been used for ensuring high accuracy of measurement.

Wistar rats [2] = test: Spontaneous EEG and epileptic afterdischarges in awake rats; type: in vivo, rat
From the text: To assess the influence of the compound from example 9 on spontaneous EEG, evoked potentials and epileptic afterdischarges, recording electrodes were implanted into the epidural spaces of the adult Wistar rats. Rats were anaesthetized with isoflurane (1.5-2%) and 4 silver wire bare electrodes were inserted epidurally over sensorimotor cortex. Reference and ground electrodes were placed above cerebellum. The whole montage was fixed to the skull with dental acrylic.
After recovery period (1 week), animals were placed into the plastic boxes and connected to the Video EEG monitoring (VisionBrain/). After 1 hour of background recording the compound from example 9 was administered at the dose of 0.01 mg/kg and EEG was recorded for next 24 hours. Analysis of EEG was performed in a custom-based MATLAB script. Power of the EEG signal was calculated from FFT in frequency band 1.5-45 Hz. Length and duration of spike and wave afterdischarges (SPW) was measured from EEG to assess effect of compound from example 9 (0.01 mg/kg and 10 mg/kg) on epileptiform activity.

rats [3] = test: Spontaneous locomotor activity in the open-field test; type: in vivo, rat; settings: 1 and 10 mg/kg s.c., 30 min before, 30 min session
Protocol: Animals were tracked with Ethovision Pro system (Noldus, Netherlands) and total path traveled during this session was evaluated. The compound from Example 9 was applied subcutaneously (dissolved in cyclodextrin) 30 min prior to behavioral observations at doses 1 mg/kg a 10 mg/kg; control animals were injected with saline.

Long-Evans rats = test: Learned helplessness model of affective disorders; type: in vivo, rat; settings: 1 mg/kg i.p. after inescapable shocks, tested 24 h later, p<0.01 vs LH group
Protocol: Male Long-Evans rats weighing 350-450 g were used. Animals were housed in groups in an air-conditioned room with 12 h/12 h light/dark cycle with the lights on at 7 a.m. Water and food were available ad libitum. Animals were randomly assigned to 3 groups—control group (received no shocks), learned helplessness group (received shocks) and experimental group (received shocks and injection of compound from example 9). An experimental set-up was composed of two chambers separated by a sliding door. The transparent shock chamber (48×20×20 cm) with one entrance led to the dark chamber (25×15×15 cm) made of black plexiglass. The floor of the shock chamber consisted of metal rods. Shocks were delivered through the grid floor. A shock generator (Data acquisition MF624 multifunction I/O board for PCI, Humusoft Ltd., Czech Republic) was connected to and controlled by a computer. On the pre-treatment day rats were individually placed into the apparatus for 10-minute habituation period. The sliding door separating two chambers was removed allowing free movements between the compartments. Immediately after the habituation rats were confined to the shock chamber for 1 hour. Inescapable shocks (72 V) of 10 s duration were delivered at 50 s intervals. Afterwards animals were injected i.p. with compound from example 9 in dose of 1 mg/kg. […] The number of escapes was recorded. […]

rats [4] = test: Prepulse inhibition of the acoustic startle response (sensorimotor gating); type: in vivo, rat; settings: 1 and 10 mg/kg s.c., compound alone
[5] = molecular target: T1, recombinant NR1/NR2B receptors (Rattus norvegicus, UniProt P35439+Q00960); test: Patch-clamp, inhibition of glutamate responses of recombinant NMDA receptors in transfected HEK293 cells; type: cell-based
T1 construct: expressed in transfected cells; host or cells: HEK293 cells (ATCC CRL1573)

Wistar rats [6] = test: Thermal nociception, plantar test (limb and tail withdrawal latency); type: in vivo, rat
Protocol: The effect of the compound from example 9 was assessed on acute nociception in rat. Pain was evaluated by measurement of paw/tail withdrawal latencies. Male Wistar rats (Velaz, Czech Republic) were used. Animals were kept at 22° C. (relative humidity was 40-70%) under a 12-hour light/12-hour dark cycle. All experiments were approved by the Committee for Animal Care and conducted in accordance with the ethical guidelines of the International Association for the Study of Pain. The animals were randomly divided into experimental and testing groups groups. The compound from example 9 was dissolved in β-cyclodextrine (the concentration 1.0 mg/ml and 10 mg/kg injected intraperitoneally or β-cyclodextrine injected intraperitoneally in same volume).
Thermal nociception was determined using plantar test equipment (Ugo Basile, Italy). The latency (in seconds) of forelimb, hindlimb or tail withdrawals to the noxious thermal stimulation was measured. Each animal was placed individually in a clear plastic box with a clear glass floor, and was allowed to acclimatize for 10 min; the temperature and humidity in the testing room were kept in the same range as those in the housing rooms. The latencies were measured 3 times per session, separated by a minimum interval of 5 min, and the mean value was used for further analysis. Infrared intensity was set to 40% and the maximum cutoff value was set at 22 seconds to avoid thermal injury. The testing box was cleaned after each session.

[7] = rat, 1 mg/kg i.p., mean of 4 rats

T1 sequence (Q00960 27-1482, other chains not shown): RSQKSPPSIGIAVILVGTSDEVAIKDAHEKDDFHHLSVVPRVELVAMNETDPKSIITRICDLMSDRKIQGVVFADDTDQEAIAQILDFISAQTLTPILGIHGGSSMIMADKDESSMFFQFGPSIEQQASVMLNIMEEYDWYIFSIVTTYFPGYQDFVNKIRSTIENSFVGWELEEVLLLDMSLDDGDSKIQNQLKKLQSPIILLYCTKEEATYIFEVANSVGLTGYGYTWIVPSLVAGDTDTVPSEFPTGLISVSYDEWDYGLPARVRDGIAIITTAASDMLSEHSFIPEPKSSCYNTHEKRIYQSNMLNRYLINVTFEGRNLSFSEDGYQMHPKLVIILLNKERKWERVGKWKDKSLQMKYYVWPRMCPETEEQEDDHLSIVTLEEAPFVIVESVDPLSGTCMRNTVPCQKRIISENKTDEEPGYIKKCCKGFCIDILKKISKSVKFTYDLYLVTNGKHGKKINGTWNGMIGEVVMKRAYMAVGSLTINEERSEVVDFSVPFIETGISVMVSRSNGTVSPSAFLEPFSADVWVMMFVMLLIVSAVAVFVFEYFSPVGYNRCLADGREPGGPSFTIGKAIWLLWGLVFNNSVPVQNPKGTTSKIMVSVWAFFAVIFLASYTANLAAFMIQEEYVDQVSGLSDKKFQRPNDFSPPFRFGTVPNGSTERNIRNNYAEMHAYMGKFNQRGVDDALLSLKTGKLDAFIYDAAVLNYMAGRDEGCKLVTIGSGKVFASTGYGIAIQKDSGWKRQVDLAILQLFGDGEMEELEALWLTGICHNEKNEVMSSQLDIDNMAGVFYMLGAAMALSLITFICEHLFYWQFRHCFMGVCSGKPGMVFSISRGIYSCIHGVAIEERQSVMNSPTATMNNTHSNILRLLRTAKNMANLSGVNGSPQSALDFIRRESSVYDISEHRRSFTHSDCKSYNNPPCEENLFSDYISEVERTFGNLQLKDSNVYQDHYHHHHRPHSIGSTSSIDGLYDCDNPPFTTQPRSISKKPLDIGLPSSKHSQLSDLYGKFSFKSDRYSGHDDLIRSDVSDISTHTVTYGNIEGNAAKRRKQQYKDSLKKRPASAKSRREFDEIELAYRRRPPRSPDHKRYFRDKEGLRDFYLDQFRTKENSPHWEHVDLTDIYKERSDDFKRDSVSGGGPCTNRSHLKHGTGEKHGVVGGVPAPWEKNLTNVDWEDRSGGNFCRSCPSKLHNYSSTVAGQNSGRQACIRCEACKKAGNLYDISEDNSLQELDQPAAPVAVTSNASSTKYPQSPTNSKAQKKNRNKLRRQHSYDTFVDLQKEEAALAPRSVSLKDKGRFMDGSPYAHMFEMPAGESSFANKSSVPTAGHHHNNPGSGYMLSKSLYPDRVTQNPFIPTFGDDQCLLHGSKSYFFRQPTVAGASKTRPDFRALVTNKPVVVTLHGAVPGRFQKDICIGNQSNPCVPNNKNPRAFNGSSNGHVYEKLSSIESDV

SMILES: CC(=O)[C@H]1CC[C@H]2[C@@H]3CC[C@@H]4C[C@H](OC(=O)[C@@H](N)CCC(=O)O)CC[C@]4(C)[C@H]3CC[C@]12C [Example 9, 20-Oxo-5β-pregnan-3α-yl L-glutamyl 1-ester]
- Tmax ([1]; male, Long-Evans, brain, ip, rat, 1 mg/kg i.p., read-out: Tmax in brain (converted)): 1 h
- Cmax ([1]; male, Long-Evans, plasma, ip, rat, 1 mg/kg i.p.): 675 ng/mL
- Tmax ([1]; male, Long-Evans, plasma, ip, rat, 1 mg/kg i.p., read-out: Tmax in plasma (converted)): 0.25 h
- half-life ([1]; male, Long-Evans, rat, intraperitoneal, 1 mg/kg, plasma, estimated): 4.45 h
- AUC ([1]; male, Long-Evans, rat, ip, 1 mg/kg, plasma, estimated, read-out: AUC0_inf i.p. (converted)): 1260 ng·h/mL
- Ke ([1]; plasma, estimated): 0.002593
- accumulation in brain tissue ([1]; rat, 1 mg/kg i.p.): not cumulated in brain tissue
- blood brain barrier penetration ([1]; rat, 1 mg/kg i.p.): penetrates blood brain barrier
- cmax in brain ([1]; rat, 1 mg/kg i.p.): 508 ng/whole brain
- brain level after 2 hours [1, 7]: 222 ng/whole brain
- brain level after 3 hours [1, 7]: 128 ng/whole brain
- brain level after 24 hours [1, 7]: 14 ng/whole brain
- brain level after 48 hours [1, 7]: 0.6 ng/whole brain
- spontaneous EEG power (Wistar rats [2]; 60 min and 180 min after application): changes the EEG power at the shorter interval
- duration and number of spike-wave afterdischarges (Wistar rats [2]; higher dose (10 mg/kg)): tended to increase these parameter
- duration and number of spike-wave afterdischarges (Wistar rats [2]; low dose (0.01 mg/kg)): tended to slightly decrease both duration and number of spike-wave episodes
- total distance traveled in the open-field session (spontaneous locomotor activity) (rats [3]): did not significantly alter the spontaneous locomotor activity
- number of escapes (learned helplessness) (Long-Evans rats): significantly increased number of escapes
- prepulse inhibition of the startle response (rats [4]): none of the doses of the compound from Example 9 significantly altered this parameter
- IC50 ([5]; calculated from relative inhibition with Hill's coefficient 1.2): 73 µM
- Relative inhibition effect (%) ([5]; responses to 1 mM glutamate, -60 mV, HEK293 NR1-1a/NR2B, steroid 50, 100 or 200 μM): 77.1 ± 5.2%
- limb withdrawal latency to thermal stimulus (Wistar rats [6]; 1 mg/kg i.p.): Such an effect was not however observed
- tail withdrawal reaction to thermal stimulus (Wistar rats [6]; 10 mg/kg i.p.): suppressed reactivity to painful stimuli
- limb withdrawal latency to thermal stimulus (Wistar rats [6]; 10 mg/kg i.p., p<0.001): significantly prolonged interval of resistance to a painful stimulus
- tail withdrawal reaction to thermal stimulus (Wistar rats [6]; lower dose (1 mg/kg i.p.)): did not yield such an effect
